Patent publication US20250034138A1, “Compounds and Compositions as C-Kit Kinase Inhibitors” (Enanta Pharmaceuticals, Inc., priority 2023, published 2025)
pEC50, pIC50: −log10 of the molar value. Where two headings read alike, the source gives them in different places.

Key:
[1] = tested on: M-07e cells which endogenously express human c-KIT; experiment: M-07e Cellular Assay (SCF-mediated cell proliferation, CellTiter Glo); assay type: cell-based; settings: read-out: M-07e EC50
Description: 2. M-07e Cellular Assay M-07e cells (Creative Bioarray, CSC-CO249) which endogenously express human c-KIT were used to evaluate the effect of compounds on stem cell factor (SCF)-mediated cell proliferation. M-07e cells were cultured in growth media (RPMI+10% FBS+1% penicillin/streptomycin+10 ng/mL GM-CSF) at 5E5-1.5E6 cells/mL, replenishing media every 3-4 days. 1.5E4 cells were seeded per well in 384 well tissue culture treated plates in 20 μL assay media (RPMI+10% FBS+1% penicillin/streptomycin) without growth factor stimulation and incubated at 37° C. in a CO2 humidity-controlled incubator. Twenty-four hours later, three-fold serially diluted test compounds in media containing SCF (at the previously determined EC90) were added to the plated M-07e cells and incubated for an additional 72 hours. Cell viability was determined by adding 25 μL CellTiter Glo (Promega) to the cells and the luminescence was measured using a Perkin Elmer Envision plate reader. The EC50 was determined using GraphPad Prism. […] EC50 ranges are reported as follows: […]

[2] = molecular target: T1, Recombinant human c-KIT kinase (Homo sapiens, UniProt P10721); experiment: c-KIT Kinase Chemiluminescence Assay (ADP-Glo); assay type: biochemical; settings: recombinant human c-KIT 30-40 nM, ATP 50 μM, polyEY substrate, ADP-Glo luminescence
T1 construct: purchased Promega V4498
T1 sequence (P10721 26-976): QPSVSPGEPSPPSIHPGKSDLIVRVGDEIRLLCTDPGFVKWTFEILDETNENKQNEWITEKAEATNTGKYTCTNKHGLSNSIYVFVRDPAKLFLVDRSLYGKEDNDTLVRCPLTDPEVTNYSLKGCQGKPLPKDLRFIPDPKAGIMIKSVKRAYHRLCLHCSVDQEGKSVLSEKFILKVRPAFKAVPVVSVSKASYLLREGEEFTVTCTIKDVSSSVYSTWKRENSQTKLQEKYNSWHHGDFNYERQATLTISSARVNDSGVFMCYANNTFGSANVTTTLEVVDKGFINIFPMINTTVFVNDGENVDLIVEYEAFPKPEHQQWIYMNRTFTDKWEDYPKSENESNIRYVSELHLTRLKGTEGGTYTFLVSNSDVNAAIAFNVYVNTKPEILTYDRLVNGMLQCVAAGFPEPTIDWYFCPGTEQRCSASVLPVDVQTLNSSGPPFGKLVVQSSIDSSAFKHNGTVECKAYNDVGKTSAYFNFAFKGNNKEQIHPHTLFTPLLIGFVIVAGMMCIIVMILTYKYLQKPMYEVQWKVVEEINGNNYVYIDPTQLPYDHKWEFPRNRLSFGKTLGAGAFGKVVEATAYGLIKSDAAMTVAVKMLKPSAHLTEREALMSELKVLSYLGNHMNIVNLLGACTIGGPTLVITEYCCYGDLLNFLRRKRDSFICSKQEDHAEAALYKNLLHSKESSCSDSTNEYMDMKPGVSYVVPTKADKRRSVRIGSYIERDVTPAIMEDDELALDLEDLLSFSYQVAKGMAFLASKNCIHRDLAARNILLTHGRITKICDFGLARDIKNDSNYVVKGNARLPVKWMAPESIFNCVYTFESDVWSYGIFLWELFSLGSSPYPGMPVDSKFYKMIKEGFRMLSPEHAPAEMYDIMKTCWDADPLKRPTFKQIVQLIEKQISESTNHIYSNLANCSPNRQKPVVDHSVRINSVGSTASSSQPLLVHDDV
Text: Staurosporine (AM-2282) and Imatinib (STI571) were purchased from Selleck Chemicals LLC (Houston, TX). The c-KIT reference compound THB001 (EP-053504) was synthesized by Enanta Pharmaceuticals, Inc. (Watertown, MA). The c-KIT Kinase Enzyme System (V4498) and ADP-Glo™ Kinase Assay kit (V6930) were purchased from Promega (Madison, WI). DMSO (D2650) was purchased from Sigma-Aldrich (Burlington, MA). ECHO-650 acoustic liquid handling system (67492212) and 384-well LDV ECHO source plates (LP-0200) were purchased from Labcyte, Inc (San Jose, CA). Envision Multimode Plate Reader (2104/464466) and ProxiPlate-384 Plus White 384-shallow well microplates (6008280) were purchased from PerkinElmer (Waltham, MA).
1. c-KIT Kinase Chemiluminescence Assay:
IC50 determination. Test compounds were dispersed into a 384-well low volume while ProxiPlate microplate from a DMSO solution using an ECHO 650 acoustic dispenser to generate a 11-point, 3.162-fold dilution, concentration curve starting at 10 μM in duplicate. Kinase Reaction: The kinase assay was based on the recommended protocol by c-KIT Kinase Enzyme System from Promega. Recombinant human c-KIT kinase in 3 μL of assay buffer (40 mM Tris pH 7.5, 20 mM MgCl2, 0.1 mg/mL BSA and 50 μM DTT) was added to the test or high control wells and 3 μL of assay buffer was added to the low control wells. The microplate was centrifuged at 800 rotations per minute (rpm) for 60 s and incubated at room temperature (RT) for 30 min. Next, 2 μL of buffered ATP and polyEY substrate solution was added to all wells. The microplate was centrifuged at 800 rpm for 60 s and incubated at RT for 2 h. The final assay contained c-KIT (30-40 nM), ATP (50 μM), polyEY substrate (0.2 μg/μL), test compounds (0-10 μM) and DMSO (1.7%) in 5 μL assay buffer. ADP detection with ADP-Glo™ Kinase Assay: After the kinase reaction incubation, 5 μL of ADP-Glo™ reagent was added to all wells. The microplate was centrifuged at 800 rpm for 60 s and incubated at RT for 40 min. Ten microliter (10 μL) of Kinase Detection Reagent (Luciferin-Luciferase system) was then added to all wells. The microplate was centrifuged at 800 rpm for 60 s and incubated at RT for 60 min. Kinase activity was measured as increase in luminescence at RT in an Envision plate reader equipped with 560 nm filters and operating in endpoint mode.
Data Analysis: Endpoint chemiluminescence from high and low control wells were used to calculate normalized c-KIT activity at various concentrations of test compounds. The normalized activities were fitted to inhibitor-versus-normalized response fit in GraphPad Prism 7 to determine half-maximal inhibitory concentration (IC50) and hill coefficient values (H).
c-KIT activity (%)=100/(1+I^H/IC50^H). Where I is the inhibitor concentration and H is the Hill coefficient. IC50 ranges are reported as follows: A<100 nM; B 0.1-1 μM; C>1 μM.

[3] = SCF (EC90)-stimulated M-07e cell proliferation, 72 hours, CellTiter Glo

| Structure (SMILES) | pEC50 [1, 3] | pIC50 [2] | pEC50 ([1]; M-07e, 72 h) |
| --- | --- | --- | --- |
| Cc1ccc(-c2nc3n(n2)CCN(C(=O)[C@H]2C[C@@H]2F)C3)cc1NC(=O)c1cnc2ccccn12 [Example 6-18] | 6.00 to 7.00 | 6.00 to 7.00 | – |
| Cc1ccc(-c2coc([C@H]3C[C@@H]3F)n2)cc1NC(=O)c1cnc2ccccn12 [Example 11-1] | > 7.00 | 6.00 to 7.00 | – |
| Cc1ccc(-c2cn3c(n2)CCCC3)cc1NC(=O)c1cnc2ccccn12 [Example 6-4] | > 7.00 | 6.00 to 7.00 | – |
| Cc1ccc(-c2nc3n(n2)C[C@H](C(F)(F)F)CC3)cc1NC(=O)c1cnc2ccccn12 [Example 6-21] | > 7.00 | > 7.00 | – |
| Cc1ccc(-c2nnc([C@H]3C[C@@H]3F)s2)cc1NC(=O)c1cnc2ccccn12 [Example 1] | > 7.00 | > 7.00 | – |
| Cc1ccc(-c2nc3ccc(Cl)cn3n2)cc1NC(=O)c1cnc2ccccn12 [Example 6-3] | > 7.00 | > 7.00 | – |
| Cc1ccc(-c2cn3c(n2)CCC3)cc1NC(=O)c1cnc2ccccn12 [Example 6-5] | 6.00 to 7.00 | 6.00 to 7.00 | – |
| Cc1ccc(-n2nnc(-c3ccc(F)cc3)n2)cc1NC(=O)c1cnc2ccccn12 [Example 9-1] | 6.00 to 7.00 | 6.00 to 7.00 | – |
| Cc1ccc(-c2nc3n(n2)CCN(C(=O)[C@H]2[C@@H]4CC(F)(F)C[C@@H]42)C3)cc1NC(=O)c1cnc2ccccn12 [Example 6-20] | – | < 6.00 | – |
| Cc1ccc(-n2ncc3ccccc32)cc1NC(=O)c1cnc2ccccn12 [Example 11-13] | – | < 6.00 | 6.00 to 7.00 |
| Cc1ccc(-c2nc3ccccc3s2)cc1NC(=O)c1cnc2ccccn12 [Example 11-4] | 6.00 to 7.00 | > 7.00 | – |
| Cc1ccc(-c2nnc3n2CCCC3)cc1NC(=O)c1cnc2ccccn12 [Example 6-11] | – | < 6.00 | – |
| Cc1ccc(-c2nc3n(n2)CCN(C(=O)OC(C)(C)C)C3)cc1NC(=O)c1cnc2ccccn12 [Example 6-13] | 6.00 to 7.00 | > 7.00 | – |
| Cc1ccc(-n2cc(C3CC(F)(F)C3)nn2)cc1NC(=O)c1cnc2ccccn12 [Example 11-12] | > 7.00 | > 7.00 | – |
| Cc1ccc(-c2nc3ccccc3o2)cc1NC(=O)c1cnc2ccccn12 [Example 11-3] | > 7.00 | 6.00 to 7.00 | – |
| Cc1ccc(-c2nc3ccccc3[nH]2)cc1NC(=O)c1cnc2ccccn12 [Example 11-6] | > 7.00 | > 7.00 | – |
| Cc1ccc(-c2cnn(C3CC(F)(F)C3)n2)cc1NC(=O)c1cnc2ccccn12 [Example 11-10] | > 7.00 | > 7.00 | – |
| Cc1ccc(-n2nnc(-c3cccc(F)c3)n2)cc1NC(=O)c1cnc2ccccn12 [Example 9-2] | 6.00 to 7.00 | 6.00 to 7.00 | – |
| Cc1ccc(-c2nc3ccc(C(F)(F)F)cc3[nH]2)cc1NC(=O)c1cnc2ccccn12 [Example 11-9] | > 7.00 | > 7.00 | – |
| Cc1ccc(-c2nc3cccc(C(F)(F)F)n3n2)cc1NC(=O)c1cnc2ccccn12 [Example 6-10] | 6.00 to 7.00 | 6.00 to 7.00 | – |
| Cc1ccc(-c2nc(C3CC(F)(F)C3)cs2)cc1NC(=O)c1cnc2ccccn12 [Example 4] | 6.00 to 7.00 | > 7.00 | – |

| Structure (SMILES) | pEC50 [1, 3] | pIC50 [2] | pEC50 ([1]; M-07e, 72 h) |
| --- | --- | --- | --- |
| Cc1ccc(-c2nnc(C3CC3)n2C2CC2)cc1NC(=O)c1cnc2ccccn12 [Example 5] | < 6.00 | < 6.00 | – |
| Cc1ccc(-c2cn(C3CC(F)(F)C3)nn2)cc1NC(=O)c1cnc2ccccn12 [Example 7] | > 7.00 | > 7.00 | – |
| Cc1ccc(-c2nc(C3CC3)nn2C)cc1NC(=O)c1cnc2ccccn12 [Example 6-1] | 6.00 to 7.00 | < 6.00 | – |
| Cc1ccc(-c2nc3ccccn3n2)cc1NC(=O)c1cnc2ccccn12 [Example 6-7] | – | < 6.00 | – |
| Cc1ccc(-c2nc3cc(C(F)(F)F)ccn3n2)cc1NC(=O)c1cnc2ccccn12 [Example 6-14] | > 7.00 | > 7.00 | – |
| Cc1ccc(-c2ncc(C3CC(F)(F)C3)n2COCC[Si](C)(C)C)cc1NC(=O)c1cnc2ccccn12 [Example 11-11] | – | < 6.00 | – |
| Cc1ccc(-c2nc3cc(C4CC4)ccn3n2)cc1NC(=O)c1cnc2ccccn12 [Example 6-23] | > 7.00 | > 7.00 | – |
| Cc1ccc(-c2nc3ccc(F)cc3[nH]2)cc1NC(=O)c1cnc2ccccn12 [Example 11-8] | > 7.00 | > 7.00 | – |
| Cc1ccc(-c2nnc(C3CC(F)(F)C3)s2)cc1NC(=O)c1cnc2ccccn12 [Example 1-1] | > 7.00 | > 7.00 | – |
| Cc1ccc(-c2nc3n(n2)CCN(C(=O)C2CC(F)(F)C2)C3)cc1NC(=O)c1cnc2ccccn12 [Example 6-19] | – | 6.00 to 7.00 | – |
| Cc1ccc(-c2nc3n(n2)CCNC3)cc1NC(=O)c1cnc2ccccn12 [Example 6-16] | < 6.00 | 6.00 to 7.00 | – |
| Cc1ccc(-c2nc3ccc(C(F)(F)F)cn3n2)cc1NC(=O)c1cnc2ccccn12 [Example 6-9] | > 7.00 | > 7.00 | – |
| Cc1ccc(-c2nnn(C3CC(F)(F)C3)n2)cc1NC(=O)c1cnc2ccccn12 [Example 3] | > 7.00 | > 7.00 | – |
| Cc1ccc(-c2nc3cc(F)ccn3n2)cc1NC(=O)c1cnc2ccccn12 [Example 6-6] | > 7.00 | > 7.00 | – |
| Cc1ccc(-c2coc(C3CC(F)(F)C3)n2)cc1NC(=O)c1cnc2ccccn12 [Example 10] | > 7.00 | > 7.00 | – |
| Cc1ccc(-c2nc3ccccc3n2C)cc1NC(=O)c1cnc2ccccn12 [Example 11-7] | 6.00 to 7.00 | < 6.00 | – |
| Cc1ccc(-c2nc3n(n2)[C@@H](c2ccccc2)C[C@H]3F)cc1NC(=O)c1cnc2ccccn12 [Example 6-8] | 6.00 to 7.00 | 6.00 to 7.00 | – |
| Cc1ccc(-c2nc3cc(F)ccc3o2)cc1NC(=O)c1cnc2ccccn12 [Example 11-2] | > 7.00 | > 7.00 | – |
| Cc1ccc(-c2c[nH]c(C3CC(F)(F)C3)n2)cc1NC(=O)c1cnc2ccccn12 [Example 11] | 6.00 to 7.00 | 6.00 to 7.00 | – |
| Cc1ccc(-c2nc3ccc(C4CC4)cn3n2)cc1NC(=O)c1cnc2ccccn12 [Example 6-24] | > 7.00 | > 7.00 | – |
